From publication PMC7671475 (Journal of Inflammation Research, 2020)

Each molecule was assayed against Syk (spleen tyrosine kinase) (Homo sapiens, UniProt P43405) (assay: ADP-Glo kinase assay with Promega Syk Kinase Enzyme System).
Format: biochemical
`O=c1cc(-c2ccc(O)cc2)oc2c([C@@H]3O[C@H](CO)[C@@H](O)[C@H](O)[C@H]3O)c(O)c([C@@H]3O[C@H](CO)[C@@H](O)[C@H](O)[C@H]3O)c(O)c12` [Vic-2, vicenin-2] gave an IC50 of 284 nM. Work on `O=C(/C=C/c1ccc(O)c(O)c1)O[C@H](Cc1ccc(O)c(O)c1)C(=O)O` [RosA, rosmarinic acid] yielded an IC50 of 114 nM. `CC1=CC(=O)CC(C)(C)[C@@]1(O)/C=C/[C@@H](C)O[C@@H]1O[C@H](CO)[C@@H](O)[C@H](O)[C@H]1O` [RosS, roseoside] gave an IC50 of 160 nM.
